Source: patent US7375190B2, “Recombinant protein and method of screening for agents that modulate polypeptide aggregation” (priority 2006, dated 2008)
Where a name gives a salt, the structure may show the parent alone.

Legend:
[1] = system: polyglutamine protein aggregation; settings: cited from earlier work
neurodegeneration = settings: in vivo; cited from earlier work
[2] = system: cells that did not express 97Q-ADE2; assay: colony-color control on glucose media, cells that did not express 97Q-ADE2, 48-well microplate; format: cell-based, yeast; settings: 0, 1, 3 and 5 mM, FIG. 4 first row
Description: Plate preparation for colony-color assay was as following: 6.7 g of yeast nitrogen base lacking amino acids, 20 g of Bacto agar and 1.3 g of drop-out mix that contain amino acids supplement necessary for viable and selective growth of the transformed cells were added to 900 ml of H2O according to Burke et al. (Burke et al., Methods in Yeast Genetics, 2000 Edition, Gold Spring Harbor Laboratory Press, 171-175). Carbon source, either glucose or galactose, and filter-sterilized adenine were added after autoclaving to final concentrations of 2% and 4 mg/l, respectively. For preparation of media containing guanidine hydrochloride, the chemical reagent was added simultaneously with carbon source and adenine to final concentrations of […] as indicated. There were about 20 ml of medium in each 10 cm petri dish and 0.2 ml of medium in each well of 48-well microplate.
For the purpose of drug screening, small volume of medium for examining the colony color phenotype of cells has advantage in saving the amount of candidate compound tested. […] With glucose or galactose as carbon source, the transformed cells were grown on adenine low media containing guanidine hydrochloride at a final concentration of 0, 1, 3 and 5 mM as indicated. […]

97Q-ADE2 [3] = assay: colony-color assay of yeast cells expressing 97Q-ADE2 on adenine low medium; format: cell-based
97Q-ADE2 [4] = assay: filter trap assay on cellulose acetate membrane for 97Q-ADE2 aggregates; format: cell-based, yeast
Description: Therefore, this unique physical characteristic of the aggregates could be detected biochemically using a filter trap assay in which only proteins with size more than 0.2 micrometers retain on a cellulose acetate membrane (Scherzinger et al., 1997, Cell 90, 549-558). In order to validate the colony-color phenotypes observed in the genetic experiments were caused by the formation of ADE2 protein aggregates, cell lysates were prepared and subjected to filter trap assays.
The experimental procedures for slot-blot assay were following: Nitrocellulose (NC) membrane was pre-wetted with TBS (20 mM Tris, 500 mM NaCl), then assembled into Bio-Dot apparatus (BIO-RAD) in which 3 filter papers (BIO-RAD) were on the bottom as a support and NC membrane was on the top. After assembly of the Bio-Dot apparatus, 200 μl TBS buffer was added into each loading well to rinse the membrane followed by the addition of diluted cell lysate (3 μl prepared cell lysate mixed with 197 μl TBS buffer). When the lysate has completely drained from the apparatus by gravity, 200 μl TBS buffer was loaded again to reduce residual proteins within the loading well. Following the step of TBS wash, 200 μl TTBS (20 mM Tris, 500 mM NaCl, and 0.05% Tween 20) was applied as washing buffer and the solution was sucked out by vacuum pump. The membrane was subjected to TTBS wash twice followed by removal of the membrane from the Bio-Dot apparatus and detection of trapped proteins by Western blotting. […] The signal for the immuno-blotting was detected by enhanced chemiluminescence (ECL) reagents. […]
In order to confirm the change of phenotype observed was caused by the alteration of protein solubility, the combination of filter trap and slot blot assays was applied for detecting the level of polyglutamine protein aggregates within these cells. […] Thus, the reduction of polyglutamine protein aggregation caused by Hsp104p inhibitor was tightly associated with the change of cellular phenotype and could be visibly detected by the colony color system.

25Q-ADE2 = assay: colony-color assay of yeast cells expressing 25Q-ADE2 on adenine low medium; format: cell-based; settings: guanidine hydrochloride 0, 1, 3 and 5 mM; 10-cm Petri dish; FIG. 3(A)
Hsp104p = molecular target: T1, Hsp104p (Saccharomyces cerevisiae, UniProt P31539); settings: 3-5 mM; cited from earlier work
T1 construct: cellular Hsp104p is required for two similar types of protein aggregation in yeast cells; host or cells: yeast cells (endogenous Hsp104p)
T1 sequence (P31539 whole entry): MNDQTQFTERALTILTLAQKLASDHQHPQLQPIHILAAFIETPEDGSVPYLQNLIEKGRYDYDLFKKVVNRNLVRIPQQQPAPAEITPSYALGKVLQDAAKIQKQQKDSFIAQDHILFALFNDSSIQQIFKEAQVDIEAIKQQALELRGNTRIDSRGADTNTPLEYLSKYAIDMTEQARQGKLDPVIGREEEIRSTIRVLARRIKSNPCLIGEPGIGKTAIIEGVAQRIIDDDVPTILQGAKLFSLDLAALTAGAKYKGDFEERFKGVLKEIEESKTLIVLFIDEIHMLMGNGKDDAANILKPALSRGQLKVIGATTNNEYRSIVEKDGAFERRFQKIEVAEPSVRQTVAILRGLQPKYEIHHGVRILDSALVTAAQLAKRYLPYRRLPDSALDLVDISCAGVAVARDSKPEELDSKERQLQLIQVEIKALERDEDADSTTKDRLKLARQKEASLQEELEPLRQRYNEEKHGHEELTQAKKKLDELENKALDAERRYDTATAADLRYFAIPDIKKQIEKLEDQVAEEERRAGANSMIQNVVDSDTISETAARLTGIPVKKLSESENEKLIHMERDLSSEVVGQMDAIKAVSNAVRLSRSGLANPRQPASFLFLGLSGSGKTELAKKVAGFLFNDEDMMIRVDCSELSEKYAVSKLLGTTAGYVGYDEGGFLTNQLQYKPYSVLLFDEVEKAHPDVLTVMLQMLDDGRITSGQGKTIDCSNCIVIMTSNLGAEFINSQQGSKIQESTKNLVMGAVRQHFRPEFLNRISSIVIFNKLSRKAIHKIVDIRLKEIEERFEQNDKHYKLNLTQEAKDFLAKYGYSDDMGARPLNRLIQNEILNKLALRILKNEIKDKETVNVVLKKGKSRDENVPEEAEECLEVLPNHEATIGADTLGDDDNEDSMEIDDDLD

C[C@@H](N)[C@H]1CC[C@H](C(=O)Nc2ccncc2)CC1 [Y-27632]
polyglutamine protein aggregation [1]: diminished polyglutamine protein aggregation | neurodegeneration in an animal model (neurodegeneration): reduced neurodegeneration

N=C(N)N [guanidine hydrochloride]
colony color of cells that did not express 97Q-ADE2 [2]: the cellular phenotype remained the same | cellular color of 97Q-ADE2 expressing cells (97Q-ADE2 [3]; 0, 1, 3 and 5 mM, 48-well microplate, galactose, FIG. 4 second row): changed their cellular colors from red to white | appearance of colony color, 97Q-ADE2 versus 25Q-ADE2 cells (97Q-ADE2 [3]; 5 mM, 10-cm Petri dish): indistinguishable between cells expressing 25Q-ADE2 and 97Q-ADE2 | cellular color phenotype of cells expressing 97Q-ADE2 (97Q-ADE2 [3]; guanidine hydrochloride 0, 1, 3 and 5 mM, adenine low media, 10-cm Petri dish, FIG. 3(A)): changed from red to pink and white as a function of guanidine hydrochloride concentration | 97Q-ADE2 fusion protein trapped on cellulose acetate membrane (97Q-ADE2 [4]; 1 mM, FIG. 3(B) lane 3): significant amount of the fusion protein was trapped | 97Q-ADE2 fusion protein trapped on cellulose acetate membrane (97Q-ADE2 [4]; 3 mM, continuous treatment, FIG. 3(B) lane 4): little | 97Q-ADE2 fusion protein trapped on cellulose acetate membrane (97Q-ADE2 [4]; 5 mM, continuous treatment, FIG. 3(B) lane 5): no signal | colony color of cells expressing 25Q-ADE2 (25Q-ADE2): constantly showed colony color of white | activity of Hsp104p (Hsp104p): substantially reduces the activity of Hsp104p
